In patent US6969718B2, “17-β hydroxysteroid dehydrogenase type 3 inhibitors for the treatment of androgen dependent diseases” (Schering Corporation, priority 2001, dated 2005) one finds melting point data, which are given here for twelve compounds.

On to `CC(C)(C)[C@H]1CN(Cc2ccccc2-c2ccc(Cl)c(Cl)c2)CCN1C(=O)CC1CCN(C(N)=O)CC1` [Example 114], for which the melting point was in the range of 98.8 to 102.4 °C.

`CC(C)(C)[C@H]1CN(C(CC2CC2)c2ccc(Cl)c(Cl)c2)CCN1C(=O)CC1CCN(C(N)=O)CC1` (stereo partly drawn) [Example 116]: the melting point was 91 to 94 °C.

With `CC(=O)N1CCC(CC(=O)N2CCN(C(CC3CC3)c3ccc(Cl)c(Cl)c3)C[C@@H]2C(C)(C)C)CC1` (stereo partly drawn) [Example 110], the melting point lay in the range of 61 to 65 °C.

In turn, `CC(C)(C)[C@H]1CN(Cc2ccc(-c3ccc(Cl)c(Cl)c3)cn2)CCN1C(=O)CC1CCN(C(N)=O)CC1` [Example 115] returned a melting point of 95.2 to 98 °C.

Consider `CC(=O)N1CCC(CC(=O)N2CCN(C(CCC(F)(F)F)c3ccc(C(F)(F)F)cc3)C[C@@H]2C(C)(C)C)CC1` (stereo partly drawn) [Example 111], for which the melting point was 61 to 63 °C.

As to `CC(C)(C)[C@H]1CN(C(CCC(F)(F)F)c2ccc(C(F)(F)F)cc2)CCN1C(=O)CC1CCN(C(N)=O)CC1` (stereo partly drawn) [Example 117], the melting point fell in the range of 76 to 80 °C.

On to `CC(=O)N1CCC(CC(=O)N2CCN(Cc3ccccc3-c3ccc(Cl)c(Cl)c3)C[C@@H]2C(C)(C)C)CC1` [Example 106], for which the melting point was 62.1 to 63.6 °C.

`CC(C)(C)[C@H]1CN(Cc2ccc(Cl)c(Cl)c2)CCN1C(=O)CC1CCN(C(N)=O)CC1` [Example 113]: the melting point was in the range of 80 to 85 °C.

In turn, `CC(=O)N1CCC(CC(=O)N2CCN(C(CC3CC3)c3ccc(Cl)c(Cl)c3)C[C@@H]2C(C)(C)C)CC1` (stereo partly drawn) [Example 109] yielded a melting point of 61 to 63 °C.

In the case of `CC(C)[C@H]1CN(C(C)c2ccc(Cl)cc2)CCN1C(=O)CC1CCN(C(N)=O)CC1` (stereo partly drawn) [Example 101], the melting point is 76 to 82 °C.

`CC(=O)N1CCC(CC(=O)N2CCN(Cc3ccc(Cl)c(Cl)c3)C[C@@H]2C(C)(C)C)CC1` [Example 104] registered a melting point of 49 to 53 °C.

Consider `CC(=O)N1CCC(CC(=O)N2CCN(Cc3ccc(-c4ccc(Cl)c(Cl)c4)cn3)C[C@@H]2C(C)(C)C)CC1` [Example 107], for which the melting point was in the range of 145.7 to 147 °C.
